Measured values published in patent US4801612A, “Method of inhibiting inflammatory response” (Regents of the University of California, priority 1986, dated 1989).

Legend:
rat hind paw [1] = experiment: Heat-induced paw edema and protein extravasation (Evans blue), hind paw in 58° C. water for 5 min.; assay type: in vivo
Method: Male albino rats weighing 200 to 280 g were anesthetized with sodium pentobarbital, 60 mg/kg i.p., and a right jugular vein cannulated for drug injections. Human/rat CRF (at various dosages described below) or saline, and Evans blue dye, 50 mg/kg, were injected intravenously 10 and 3 min., respectively, before immersion of the hind paw in 48° C. or 58° C. water for 5 min. The frequency of paw withdrawal from the water was then counted.
(§1) At the end of the exposure period, the animals were sacrificed and the dorsal skin, between the calcaneal process and phalanges, was removed from both paws, weighed, and each placed in 4 ml of formamide for 3 days at room temperature. The extracted Evans blue was quantified colorimetrically at 600 nm with readings from the untreated paw skin used as the blank values.
Protein extravasation was measured by injecting a dye into a blood compartment of the animal. The dye binds to blood proteins and when the permeability of the tissue is increased by the heat, the dye leaks into the skin of the paw. The skin of the paw was excised, the dye extracted, and the amount of dye in the skin was measured to provide an index of the skin permeability changes that accompany the heat damage. […] In a manner analogous to that described above for administration of CRF, sauvagine was administered and paws of the anesthetized recipients exposed to water at 58° C. Saline was administered to a control group. The dose of sauvagine was 5 μg/kg given i.v. 5 min. before paw immersion.
In addition, other groups of rats were administered eithe rmorphine sulfate or dexamethasone, and groups of rats were administered saline as controls.

[2] = Mean arterial blood pressure (MAP); assay type: in vivo, rat; conditions: s.c. 60 min. before electrical stimulation of the saphenous nerve
Method: For injections of drugs into the brain, a 21-gauge guide cannula was stereotaxically implanted into the lateral ventricle and a 28-gauge internal cannula coupled to a Hamilton microsyringe was used to deliver a 5-μl volume of drug solution to the brain. The site of injection was verified by injections of 0.5% solutions of methylene blue into the same cannula. In some experiments, blood pressure was measured from a cannulated carotid artery coupled to a Narcobiosystems strain gauge, cardiotachometer and polygraph. Mean arterial blood pressure (MAP) was calculated as 1/3 pulse pressure plus diastolic pressure.
As has been known, CRF and related peptides produce hypotension in anesthetized and unanesthetized animals. […] Neither does the inflammation inhibition of the present invention appear to have any associaton with the hypotensive properties of CRF and its analogs.

rat hind paw [3] = experiment: Heat-induced paw edema and protein extravasation, hind paw in 48° C. water for 5 min.; assay type: in vivo; conditions: sauvagine 5 μg/kg i.v. 5 min. before
Method: Male albino rats weighing 200 to 280 g were anesthetized with sodium pentobarbital, 60 mg/kg i.p., and a right jugular vein cannulated for drug injections. […] The frequency of paw withdrawal from the water was then counted. Leakage of Evans blue dye into the paw skin becomes visible within 2 min. At water temperatures of 58° C., the average dye content was 364±17 μg/paw for rats receiving saline.
as §1
FIG. 3 illustrates the inhibition by CRF of heat-induced tissue edema, as measured by changes in skin weight. When the paw of an untreated, anesthetized rat is placed in warm water (48° C.) for 5 min., the paw swells and this paw edema can be measured simply by weighing the heated paw skin and comparing its weight to the contralateral, unheated paw skin. If just saline (that is, isotonic salt water) is injected as the control procedure, the percent increase in weight (with respect to unheated paw) is 72%.

[4] = 0.50 mg/kg i.v., 5 min. before exposure
[5] = 3.0 mg/kg i.v., 5 min. before exposure
[6] = 0.94 mg/kg i.v., 20 min. before exposure
[7] = 3.75 mg/kg i.v., 20 min. before exposure
[8] = 0.005 mg/kg i.v., 5 min. before exposure
[9] = Table I, sheep CRF at 0.168 mg/kg i.v., sauvagine at 5 μg/kg i.v.

Question: Which results are given for `C[C@@H]1C[C@H]2[C@@H]3CCC4=CC(=O)C=C[C@]4(C)[C@@]3(F)[C@@H](O)C[C@]2(C)[C@@]1(O)C(=O)CO` [dexamethasone, reference compound]?
Answer: % Weight Increase (rat hind paw [1]; [4]): 170 ± 14%; Dye μg/paw (rat hind paw [1]; [4]): 375 ± 23 μg/paw; inhibition of edema (in words) (rat hind paw [1]; doses of Table I): neither morphine nor dexamethasone inhibits either edema; inhibition of protein extravasation / dye leakage (in words) (rat hind paw [1]; doses of Table I): neither morphine nor dexamethasone inhibits

Question: For `CN1CC[C@]23c4c5ccc(O)c4O[C@H]2[C@@H](O)C=C[C@H]3[C@H]1C5.O=S(=O)(O)O` [morphine SO4, morphine sulfate, reference compound], which “% Weight Increase” value (rat hind paw [1]; [5]) is on record?
Answer: 157 ± 12%

Question: What about the “Dye μg/paw” value (rat hind paw [1]; [5]) of the same compound?
Answer: 290 ± 36 μg/paw

Question: With `CC[C@H](C)[C@H](NC(=O)[C@@H](NC(=O)[C@H](CCC(=O)O)NC(=O)[C@H](CCSC)NC(=O)[C@H](CC(C)C)NC(=O)[C@H](CCCCN)NC(=O)[C@H](CCCNC(=N)N)NC(=O)[C@H](CC(N)=O)NC(=O)[C@H](CO)NC(=O)[C@H](Cc1c[nH]cn1)NC(=O)[C@H](C)NC(=O)[C@H](CCC(N)=O)NC(=O)[C@H](CCC(N)=O)NC(=O)[C@H](C)NC(=O)[C@H](CC(C)C)NC(=O)[C@H](CCC(N)=O)NC(=O)[C@H](CCC(=O)O)NC(=O)[C@H](C)NC(=O)[C@H](CCCNC(=N)N)NC(=O)[C@H](C)NC(=O)[C@H](CCSC)NC(=O)[C@H](CCC(=O)O)NC(=O)[C@H](CC(C)C)NC(=O)[C@@H](NC(=O)[C@H](CCC(=O)O)NC(=O)[C@H](CCCNC(=N)N)NC(=O)[C@H](CC(C)C)NC(=O)[C@H](CC(C)C)NC(=O)[C@H](Cc1c[nH]cn1)NC(=O)[C@H](Cc1ccccc1)NC(=O)[C@@H](NC(=O)[C@H](CC(C)C)NC(=O)[C@H](CC(=O)O)NC(=O)[C@H](CC(C)C)NC(=O)[C@H](CO)NC(=O)[C@@H](NC(=O)[C@@H]1CCCN1C(=O)[C@@H]1CCCN1C(=O)[C@H](CCC(=O)O)NC(=O)[C@H](CCC(=O)O)NC(=O)[C@@H](N)CO)[C@@H](C)CC)[C@@H](C)O)C(C)C)[C@@H](C)CC)C(N)=O` [rCRF, Corticotropin Releasing Factor] as the compound, how does the “effect on mean arterial pressure” value [2] read?
Answer: did not lower mean arterial pressure

Question: Which results are given for dynorphin (1-13)?
Answer: reduction of edema (in words) (rat hind paw [1]; 940 μg/kg): did not; reduction of protein extravasation (in words) (rat hind paw [1]; 940 μg/kg): did not; % Weight Increase (rat hind paw [1]; [6]): 194 ± 6%; Dye μg/paw (rat hind paw [1]; [6]): 411 ± 15 μg/paw; reduction of edema (in words) (rat hind paw [1]; 3750 μg/kg i.v.): did reduce edema; reduction of protein extravasation (in words) (rat hind paw [1]; 3750 μg/kg i.v.): did reduce edema and protein extravasation; % Weight Increase (rat hind paw [1]; [7]): 87 ± 17%; Dye μg/paw (rat hind paw [1]; [7]): 223 ± 37 μg/paw

Question: With sauvagine as the compound, how does the “% Weight Increase” value (rat hind paw [1]; [8]) read?
Answer: 51 ± 11%

Question: And the “Dye μg/paw” value (rat hind paw [1]; [8])?
Answer: 86 ± 18 μg/paw

Question: And the “reduction of edema relative to saline” value (rat hind paw [1]; [9])?
Answer: about comparable to the sheep CRF at 168 μg/kg i.v. in reducing edema

Question: And the “reduction of protein extravasation relative to saline” value (rat hind paw [1]; [9])?
Answer: even more effective in reducing protein extravasation

Question: And the dye increase (rat hind paw [3])?
Answer: 13.7 ± 3.5 μg/paw

Question: What about the “paw skin weight increase” value (rat hind paw [3]) of the same compound?
Answer: 4.9%+2.0
